Patent US20040067889A1, “Stabilization of brain natriuretic peptide (BNP) in blood samples, methods and compositions related thereto” (priority 2002, published 2004)
Where two headings read alike, the source gives them in different places.

Columns and labels:
Format in all cases: biochemical
endogenous proteases [1] = experiment: Stability of synthetic BNP-32 spiked into normal human plasma with protease inhibitors (chemiluminescent BNP immunoassay); conditions: for efficacy in stabilizing BNP (in words): Table 11, inhibitors at usual functional concentrations
endogenous proteases [2] = experiment: Stability of spiked synthetic BNP in bovine fetal serum with inhibitors; conditions: BFS; for Recovery versus 1st run: 48 hours at 4° C.
Excerpt: (§1) To generate an analytical signal to quantify the BNP concentration in the sample, two monoclonal BNP-specific antibodies (Shionogi & Co., LTD, Osaka, Japan; EP542255A1/B1; JP 3297392) were used. The first antibody was labeled with acridinium ester (AE) and the second antibody was labeled with biotin. The two antibodies bind to BNP molecules present in the plasma samples to form a complex; the formed complex was captured by paramagnetic particles (PMP) coated with streptavidin. PMP was separated by magnetic field and washed to remove non-specifically bound material. BNP-AE complexes retained on the PMP were treated with alkaline solution to produce a chemiluminescent signal, which was proportional to the amount of BNP captured; the signal was measured in relative light units or “RLU”. The assay was carried out on an automated chemiluminescent system ADIVA:Centaur™ (Bayer Corporation, Tarrytown, N.Y.) using BNP detection reagents, such as have been described. (e.g., B. Bluestein et al., 2002, “Development of an automated test for BNP as an aid in the diagnosis and evaluation of CHF on the Bayer ADVIA Centaur ACS”, Clinical Chemistry, 48(S6):A85, Abstract C37).
(§2) Experiments were performed to assess BNP stabilization in animal serum and human serum versus human plasma. Tables 9 and 10 below illustrate the efficacy of PPACK and leupeptin as BNP stabilizers in three different media, namely, bovine fetal serum (Biocell Labs, Rancho Dominguez, Calif.), normal human serum (Biocell Labs), and normal human plasma (Intergen).

endogenous proteases [3] = experiment: Stability of spiked synthetic BNP in normal human serum with inhibitors; conditions: HS; for Recovery versus 1st run: 48 hours at 4° C.
Excerpt: as §1, §2

[4] = IHPP + 10 ng/ml BNP, 4° C., AEBSF 200 μg/ml, antipain 100 μg/ml, benzamidine 14 mM, PPACK 50 μg/ml, or all four
[5] = HP, spiked synthetic BNP, leupeptin 0.5 μg/ml
[6] = HP, spiked synthetic BNP, leupeptin 5 μg/ml
[7] = HP, spiked synthetic BNP, leupeptin 50 μg/ml
[8] = IHP (EDTA) with synthetic BNP-32 added, each inhibitor 50 μg/ml
[9] = Plasma A, spiked synthetic BNP, inhibitor 0.62 μg/ml
[10] = Plasma A, spiked synthetic BNP, inhibitor 1.85 μg/ml
[11] = Plasma A, spiked synthetic BNP, inhibitor 5.56 μg/ml
[12] = Plasma A, spiked synthetic BNP, inhibitor 16.7 μg/ml
[13] = Plasma A, spiked synthetic BNP, inhibitor 50 μg/ml

N=C(N)c1ccccc1 [benzamidine]
% Recovery vs 1st run (Time 0) (endogenous proteases [1]): 82.6%
BNP, 1st run (Time 0) (endogenous proteases [1]): 830.6 pg/mL
BNP, 3 hours at 4° C. (endogenous proteases [1]): 806.8 pg/mL
BNP, 17 hours at 4° C. (endogenous proteases [1]): 860.5 pg/mL
BNP, 40 hours at 4° C. (endogenous proteases [1]): 813.8 pg/mL
BNP, 6 days at 4° C. (endogenous proteases [1]): 686.3 pg/mL
1 week (RLU) (endogenous proteases [1]; [4]): 2568730 RLU
2 weeks (RLU) (endogenous proteases [1]; [4]): 238972 RLU
4 weeks % Signal Recovered (endogenous proteases [1]; [4]): 0.8%
4 weeks (RLU) (endogenous proteases [1]; [4]): 30024 RLU
72 hrs (RLU) (endogenous proteases [1]; [4]): 3342787 RLU
22 days (RLU) (endogenous proteases [1]; [4]): 108308 RLU
Day 0 (RLU) (endogenous proteases [1]; [4]): 3927159 RLU
efficacy in stabilizing BNP (in words) (endogenous proteases [1]): intermediate efficacy

CC(=O)N[C@@H](CC(C)C)C(=O)N[C@@H](CC(C)C)C(=O)N[C@H](C=O)CCCNC(=N)N [leupeptin, acetyl-leu-leu-arginal]
% Recovery vs 1st run (Time 0) (endogenous proteases [1]): 105.5%
BNP, 1st run (Time 0) (endogenous proteases [1]): 792.0 pg/mL
BNP, 3 hours at 4° C. (endogenous proteases [1]): 896.9 pg/mL
BNP, 17 hours at 4° C. (endogenous proteases [1]): 864.4 pg/mL
BNP, 40 hours at 4° C. (endogenous proteases [1]): 873.7 pg/mL
BNP, 6 days at 4° C. (endogenous proteases [1]): 835.9 pg/mL
BNP, 3 hours at 4° C. before freezing (endogenous proteases [1]; [5]): 751.3 pg/mL
BNP, 24 hours at 4° C. before freezing (endogenous proteases [1]; [5]): 696.1 pg/mL
BNP, 48 hours at 4° C. before freezing (endogenous proteases [1]; [5]): 672.6 pg/mL
BNP, frozen w/o storage at 4° C. (endogenous proteases [1]; [5]): 765.2 pg/mL
Recovery versus 1st run (endogenous proteases [1]; HP, spiked synthetic BNP, leupeptin 0.5 μg/ml, 48 hours at 4° C.): 87.9%
BNP, 3 hours at 4° C. before freezing (endogenous proteases [1]; [6]): 828.3 pg/mL
BNP, 24 hours at 4° C. before freezing (endogenous proteases [1]; [6]): 807.5 pg/mL
BNP, 48 hours at 4° C. before freezing (endogenous proteases [1]; [6]): 784.4 pg/mL
BNP, frozen w/o storage at 4° C. (endogenous proteases [1]; [6]): 679.0 pg/mL
Recovery versus 1st run (endogenous proteases [1]; HP, spiked synthetic BNP, leupeptin 5 μg/ml, 48 hours at 4° C.): 115.5%
BNP, 3 hours at 4° C. before freezing (endogenous proteases [1]; [7]): 795.6 pg/mL
BNP, 24 hours at 4° C. before freezing (endogenous proteases [1]; [7]): 763.0 pg/mL
BNP, 48 hours at 4° C. before freezing (endogenous proteases [1]; [7]): 798.3 pg/mL
BNP, frozen w/o storage at 4° C. (endogenous proteases [1]; [7]): 867.2 pg/mL
Recovery versus 1st run (endogenous proteases [1]; HP, spiked synthetic BNP, leupeptin 50 μg/ml, 48 hours at 4° C.): 92.1%
Amount of BNP Present After 24 hr/4° C. (endogenous proteases [1]; [8]): 2503.78
Amount of BNP Present After 90 hr/4° C. (endogenous proteases [1]; [8]): 2133.75
Amount of BNP Present Before Storage, Day 0 (endogenous proteases [1]; [8]): 2290.08
BNP Amount % Change (endogenous proteases [1]; IHP with synthetic BNP-32 added, each inhibitor 50 μg/ml, 90 hr/4° C. vs Day 0): −6.8%
BNP, 1st run (Time 0) (endogenous proteases [1]; [9]): 847.4 pg/mL
BNP, 3 hours at 4° C. (endogenous proteases [1]; [9]): 863.3 pg/mL
BNP, 17 hours at 4° C. (endogenous proteases [1]; [9]): 776.1 pg/mL
BNP, 40 hours at 4° C. (endogenous proteases [1]; [9]): 721.6 pg/mL
BNP, 6 days at 4° C. (endogenous proteases [1]; [9]): 373.6 pg/mL
Recovery versus 1st run (endogenous proteases [1]; Plasma A, spiked synthetic BNP, inhibitor 0.62 μg/ml, 6 days at 4° C.): 44.1%
BNP, 1st run (Time 0) (endogenous proteases [1]; [10]): 841.7 pg/mL
BNP, 3 hours at 4° C. (endogenous proteases [1]; [10]): 873.5 pg/mL
BNP, 17 hours at 4° C. (endogenous proteases [1]; [10]): 859.4 pg/mL
BNP, 40 hours at 4° C. (endogenous proteases [1]; [10]): 795.5 pg/mL
BNP, 6 days at 4° C. (endogenous proteases [1]; [10]): 604.7 pg/mL
Recovery versus 1st run (endogenous proteases [1]; Plasma A, spiked synthetic BNP, inhibitor 1.85 μg/ml, 6 days at 4° C.): 71.8%
BNP, 1st run (Time 0) (endogenous proteases [1]; [11]): 879.3 pg/mL
BNP, 3 hours at 4° C. (endogenous proteases [1]; [11]): 900.4 pg/mL
BNP, 17 hours at 4° C. (endogenous proteases [1]; [11]): 847.2 pg/mL
BNP, 40 hours at 4° C. (endogenous proteases [1]; [11]): 808.0 pg/mL
BNP, 6 days at 4° C. (endogenous proteases [1]; [11]): 722.8 pg/mL
Recovery versus 1st run (endogenous proteases [1]; Plasma A, spiked synthetic BNP, inhibitor 5.56 μg/ml, 6 days at 4° C.): 82.2%
BNP, 1st run (Time 0) (endogenous proteases [1]; [12]): 886.7 pg/mL
BNP, 3 hours at 4° C. (endogenous proteases [1]; [12]): 849.8 pg/mL
BNP, 17 hours at 4° C. (endogenous proteases [1]; [12]): 904.5 pg/mL
BNP, 40 hours at 4° C. (endogenous proteases [1]; [12]): 903.1 pg/mL
BNP, 6 days at 4° C. (endogenous proteases [1]; [12]): 808.2 pg/mL
Recovery versus 1st run (endogenous proteases [1]; Plasma A, spiked synthetic BNP, inhibitor 16.7 μg/ml, 6 days at 4° C.): 91.1%
BNP, 1st run (Time 0) (endogenous proteases [1]; [13]): 792.0 pg/mL
BNP, 3 hours at 4° C. (endogenous proteases [1]; [13]): 896.9 pg/mL
BNP, 17 hours at 4° C. (endogenous proteases [1]; [13]): 864.4 pg/mL
BNP, 40 hours at 4° C. (endogenous proteases [1]; [13]): 873.7 pg/mL
BNP, 6 days at 4° C. (endogenous proteases [1]; [13]): 835.9 pg/mL
Recovery versus 1st run (endogenous proteases [1]; Plasma A, spiked synthetic BNP, inhibitor 50 μg/ml, 6 days at 4° C.): 105.5%
BNP, 3 hours at 4° C. before freezing (endogenous proteases [2]; leupeptin 0.5 μg/ml): 639.6 pg/mL
BNP, 24 hours at 4° C. before freezing (endogenous proteases [2]; leupeptin 0.5 μg/ml): 537.2 pg/mL
BNP, 48 hours at 4° C. before freezing (endogenous proteases [2]; leupeptin 0.5 μg/ml): 424.9 pg/mL
BNP, frozen w/o storage at 4° C. (endogenous proteases [2]; leupeptin 0.5 μg/ml): 712.9 pg/mL
Recovery versus 1st run (endogenous proteases [2]; leupeptin 0.5 μg/ml): 59.6%
BNP, 3 hours at 4° C. before freezing (endogenous proteases [2]; leupeptin 5 μg/ml): 672.2 pg/mL
BNP, 24 hours at 4° C. before freezing (endogenous proteases [2]; leupeptin 5 μg/ml): 601.7 pg/mL
BNP, 48 hours at 4° C. before freezing (endogenous proteases [2]; leupeptin 5 μg/ml): 498.9 pg/mL
BNP, frozen w/o storage at 4° C. (endogenous proteases [2]; leupeptin 5 μg/ml): 845.0 pg/mL
Recovery versus 1st run (endogenous proteases [2]; leupeptin 5 μg/ml): 59.0%
BNP, 3 hours at 4° C. before freezing (endogenous proteases [2]; leupeptin 50 μg/ml): 751.1 pg/mL
BNP, 24 hours at 4° C. before freezing (endogenous proteases [2]; leupeptin 50 μg/ml): 707.0 pg/mL
BNP, 48 hours at 4° C. before freezing (endogenous proteases [2]; leupeptin 50 μg/ml): 614.5 pg/mL
BNP, frozen w/o storage at 4° C. (endogenous proteases [2]; leupeptin 50 μg/ml): 810.5 pg/mL
Recovery versus 1st run (endogenous proteases [2]; leupeptin 50 μg/ml): 75.8%
BNP, 3 hours at 4° C. before freezing (endogenous proteases [3]; leupeptin 0.5 μg/ml): 129.0 pg/mL
BNP, 24 hours at 4° C. before freezing (endogenous proteases [3]; leupeptin 0.5 μg/ml): 45.1 pg/mL
BNP, 48 hours at 4° C. before freezing (endogenous proteases [3]; leupeptin 0.5 μg/ml): 11.4 pg/mL
BNP, frozen w/o storage at 4° C. (endogenous proteases [3]; leupeptin 0.5 μg/ml): 227.7 pg/mL
Recovery versus 1st run (endogenous proteases [3]; leupeptin 0.5 μg/ml): 5.0%
BNP, 3 hours at 4° C. before freezing (endogenous proteases [3]; leupeptin 5 μg/ml): 203.0 pg/mL
BNP, 24 hours at 4° C. before freezing (endogenous proteases [3]; leupeptin 5 μg/ml): 135.6 pg/mL
BNP, 48 hours at 4° C. before freezing (endogenous proteases [3]; leupeptin 5 μg/ml): 74.3 pg/mL
BNP, frozen w/o storage at 4° C. (endogenous proteases [3]; leupeptin 5 μg/ml): 311.1 pg/mL
Recovery versus 1st run (endogenous proteases [3]; leupeptin 5 μg/ml): 23.9%
BNP, 3 hours at 4° C. before freezing (endogenous proteases [3]; leupeptin 50 μg/ml): 274.2 pg/mL
BNP, 24 hours at 4° C. before freezing (endogenous proteases [3]; leupeptin 50 μg/ml): 217.5 pg/mL
BNP, 48 hours at 4° C. before freezing (endogenous proteases [3]; leupeptin 50 μg/ml): 156.6 pg/mL
BNP, frozen w/o storage at 4° C. (endogenous proteases [3]; leupeptin 50 μg/ml): 297.9 pg/mL
Recovery versus 1st run (endogenous proteases [3]; leupeptin 50 μg/ml): 52.6%

Aprotinin
% Recovery vs 1st run (Time 0) (endogenous proteases [1]): 21.1%
BNP, 1st run (Time 0) (endogenous proteases [1]): 792.4 pg/mL
BNP, 3 hours at 4° C. (endogenous proteases [1]): 849.7 pg/mL
BNP, 17 hours at 4° C. (endogenous proteases [1]): 680.0 pg/mL
BNP, 40 hours at 4° C. (endogenous proteases [1]): 490.9 pg/mL
BNP, 6 days at 4° C. (endogenous proteases [1]): 167.4 pg/mL
efficacy in stabilizing BNP (in words) (endogenous proteases [1]): low efficacy
